Results published in US4476299A, “Cyclic polyamino containing compounds having therapeutic effect and the preparation thereof” (priority 1981, dated 1984).
“Also recorded” adds a separate entry of the source. Where two headings read alike, the source gives them in different places.

Experiments:
[1] = system: P-388 cells; assay: Antineoplastic action against implanted P-388 tumor, CDF1 mice, i.p.-i.p. (T/C %); assay type: in vivo; conditions: for T/C (%): Table 7, P388 (i.p.-i.p.)
Experimental: (§1) In this animal test, the antineoplastic action against the implanted tumor was examined, in lower animals in vivo, in repsect to the compounds according to the present invention, by using CDF1 mice.
(§2) To the peritoneal cavity of each group of mice consisting of six CDF1 mice per group, 10^6 /0.1 ml of P-388 cells or 10^5 /0.1 ml of L-1210 cells were implanted. […] While to the control groups of CDF1 mice, P-388 and L-1210 cells were implanted in the same manner and they were bred without administration of the compounds. […]

[2] = system: L-1210 cells; assay: Antineoplastic action against implanted L-1210 tumor, CDF1 mice, i.p.-i.p. (T/C %); assay type: in vivo; conditions: Table 7, L1210 (i.p.-i.p.)
Experimental: as §1, §2

[3] = system: B-16 melanoma; assay: Antineoplastic action against B-16 melanoma, i.p.-i.p. (T/C %); assay type: in vivo, mice; conditions: for T/C (%): Table 7, B16 (i.p.-i.p.)
Description: as §1
(§3) As the screening test for confirming antineoplasticity of certain compound, it is known in the art that there are two kinds of tests, one being "in vitro" test wherein carcinoma cells in propagation in a test tube are used, the other being "in vivo" test wherein lower animals implanted with carcinoma cells are used. In Japan. the "in vivo" test is usually carried out by using Ehrlich tumor, L-1210 cells, sarcoma 180 cells, Yoshida sarcoma or ascites-liver tumor as ascitic tumor and immobilized carcinoma mentioned above as fixed carcinoma. Recently, a new method for confirming the antineoplasticity has been developed, in which lymphocytic leukemia cells P-388 are used. It is known that P-388 has more strong sensitivity than L-1210. As fixed carcinoma, there may be mentioned, for example Lewis lung cancer B-16 melanoma, MM2, MOPC 104E, Colon 26, MH 134, C-1498 and the like.
(§4) The new compounds of the present invention were confirmed to be effective to the P-388 cells in the light of the screening test's results hereinbefore described.

[4] = system: MM2; assay: Antineoplastic action against MM2 tumor, i.p.-i.p. (T/C %); assay type: in vivo, mice; conditions: for T/C (%): Table 7, MM2 (i.p.-i.p.)
Description: as §1, §3, §4

[5] = Toxicity test: lethal dose in mice (Litchfield-Wilcoxon); parameters: species or system male 4-weeks CD-1 (ICR) mice; conditions: mouse, in vivo, 7 days, read-out: LD50 and 95% Confidence Limit
Experimental: With respect to the compounds of this invention, the lethal dose was determined as follows.
By using male 4-weeks CD-1 (ICR) mice consisting of 5 to 10 mice per group, the desired amount of each compound of this invention was suspended in 0.5% CMC solution and the resultant suspension was administered to each mouse intraperitoneally or intravenously. Observing the life or death as well as the general symptome during 7 days after the administration of the compounds, the value of LD50 for each compounds was estimated from the lethal population observed on the basis of the Litchfield-Wilcoxon method.

[6] = system: CD-1 (IRC) mice; assay: Neuropharmacological multidimensional observation (modified Arwin method and Smith method) in mice; assay type: in vivo, 4-weeks CD-1 (IRC) mice; conditions: i.p., 1 to 20 mg/kg, observed every 30 minutes for 180 minutes
Experimental: In this test, other pharmacological effects which may be obtained by these compounds were investigated.
Each compound of the invention was intraperitoneally administered to 4-weeks CD-1 (IRC) mice (Nippon Charles Liver K.K.) in the dose of 1 to 20 mg/kg with using mice groups consisting of three mice per group. […] The observation was carried out according to the modified Arwin method and Smith method, i.e., neuropharmacological multidimentional observation method.
Making a comparison between the symptom observed and the pattern of the pharmacological action due to the known medicines, it has been discovered that each compound of the invention has the following pharmacological effect.

[7] = Mus musculus, P388, ip, read-out: T/C %, (Treatment/Control %)

Structure (SMILES): COc1ccc(CC2C(=O)NC(C)C(=O)N(C)C3Cc4ccc(cc4)Oc4cc(ccc4OC(C)=O)CC(C(=O)NC(C)C(=O)NC(C)C(=O)N2C)N(C)C3=O)cc1 (stereo not shown) [Ex. 22, Acetic acid ester of TPC-A]
- response vs control in vivo at 0.05 mg/kg ([1]; Mus musculus, ip, Table 6, P388, dose 0.05 mg/kg, i.p., read-out: T/C %, (Treatment/Control %)): 133%
- response vs control in vivo at 0.5 mg/kg ([1]; Mus musculus, ip, Table 6, P388, dose 0.5 mg/kg, i.p., read-out: T/C %, (Treatment/Control %)): 156%
- response vs control in vivo at 2 mg/kg ([1]; Mus musculus, ip, Table 6, P388, dose 2 mg/kg, i.p., read-out: T/C %, (Treatment/Control %)): 169%
- response vs control in vivo at 10 mg/kg ([1]; Mus musculus, ip, Table 6, P388, dose 10 mg/kg, i.p., read-out: T/C %, (Treatment/Control %)): 195%
- T/C (%) ([1]; 0.05 mg/kg): 133.3%
- T/C (%) ([1]; 0.5 mg/kg): 155.6%
- T/C (%) ([1]; 2 mg/kg): 168.9%
- T/C (%) ([1]; 5 mg/kg): 175.8%
- T/C (%) ([1]; 10 mg/kg): 194.7%
- T/C (%) ([2]; 0.05 mg/kg): 100.9%
- T/C (%) ([2]; 0.5 mg/kg): 110.0%
- T/C (%) ([2]; 2 mg/kg): 114.4%
- T/C (%) ([2]; 5 mg/kg): 120.0%
- T/C (%) ([2]; 10 mg/kg): 128.9%
- T/C (%) ([3]; 0.5 mg/kg): 116.9%
- T/C (%) ([3]; 2 mg/kg): 128.5%
- T/C (%) ([3]; 4 mg/kg): 147.8%
- T/C (%) ([3]; 8 mg/kg): 141.1%
- effective against B-16 melanoma ([3]; in words): effective against B-16 melanoma
- T/C (%) ([4]; 0.5 mg/kg): 102.5%
- T/C (%) ([4]; 2 mg/kg): 109.2%
- T/C (%) ([4]; 5 mg/kg): 117.8%
- T/C (%) ([4]; 10 mg/kg): 120.9%
- effective against MM2 ([4]; in words): effective
- LD50 at 168 h ([5]; intravenous): 20 mg/kg
- LD50 at 168 h ([5]; ip, intraperitoneal): 18.4 mg/kg
- Pharmacological effect estimated [6]: emetic action; also recorded: psychotropic action; also recorded: antidiuretic action

Structure (SMILES): COc1ccc(CC2C(=O)NC(C)C(=O)N(C)C3Cc4ccc(cc4)Oc4cc(ccc4OC)CC(C(=O)NC(C)C(=O)NC(C)C(=O)N2C)N(C)C3=O)cc1 (stereo not shown) [Methylether of TPC-A, methylether of the compound TPC-A]
- response vs control in vivo at 0.01 mg/kg [1, 7]: 130%
- response vs control in vivo at 0.5 mg/kg [1, 7]: 157%
- response vs control in vivo at 2 mg/kg [1, 7]: 164%
- response vs control in vivo at 4 mg/kg [1, 7]: 174%
- T/C (%) ([1]; 0.01 mg/kg): 130.1%
- T/C (%) ([1]; 0.5 mg/kg): 156.7%
- T/C (%) ([1]; 1 mg/kg): 159.9%
- T/C (%) ([1]; 2 mg/kg): 164.2%
- T/C (%) ([1]; 4 mg/kg): 173.6%
- T/C (%) ([2]; 0.01 mg/kg): 105.6%
- T/C (%) ([2]; 0.5 mg/kg): 118.6%
- T/C (%) ([2]; 1 mg/kg): 120.7%
- T/C (%) ([2]; 2 mg/kg): 129.3%
- T/C (%) ([2]; 5 mg/kg): 137.3%
- T/C (%) ([3]; 1 mg/kg): 135.3%
- T/C (%) ([3]; 2 mg/kg): 139.1%
- T/C (%) ([3]; 4 mg/kg): 143.0%
- T/C (%) ([3]; printed "(p. 25 mg/kg)"): 133.8%
- T/C (%) ([4]; 0.2 mg/kg): 103.1%
- T/C (%) ([4]; 1 mg/kg): 103.1%
- T/C (%) ([4]; 2 mg/kg): 118.4%
- T/C (%) ([4]; 5 mg/kg): 90.8%
- LD50 at 168 h ([5]; intravenous): 16.5 mg/kg
- LD50 at 168 h ([5]; ip, intraperitoneal): 10 mg/kg
- Pharmacological effect estimated [6]: emetic action; also recorded: anorexigenic action
